How the values were obtained:
BTK = target: T1, BTK (Homo sapiens, UniProt Q06187); test: BTK kinase electrophoretic mobility shift assay (MSA); format: biochemical; conditions: 50 μM ATP, 0.5 nM BTK enzyme (Nanosyn-293HEK, WT), 3 hours at 25° C.; all examples except 50, 51, 62 and 63; read-out: BTK IC50
T1 construct: purchased Nanosyn, Santa Clara, Calif; host or cells: 293HEK

CYP3A4 = CYP3A4 induction assay (CYP 3A4 mRNA by qPCR in cryopreserved human hepatocytes); format: in vitro ADME; conditions: CYP3A4 mRNA fold change vs vehicle, 10 μM compound
Experimental: CYP induction was evaluated in vitro by determining the expression levels of CYP 3A4 mRNA using the qPCR (quantitative polymerase chain reaction) assay. On day one, cryopreserved human hepatocytes were thawed in prewarmed (37° C.) thawing medium (cryopreserved hepatocyte recovery medium, Gibco™ CM 7000; Thermo Fisher Scientific), centrifuged (1000 g for 10 minutes) and resuspended in plating medium (Gibco™ CM3000—Williams Medium E supplemented with hepatocytes plating supplement pak-serum containing; Thermo Fisher Scientific). Cells were counted by trypan blue exclusion using a hemocytometer and adjusted to a cell density of […]. Thereafter, […] of cell suspension was aliquoted per well in a 96-well plate, resulting in 60,000 cells/well. Plates were shaken in the north-south and east-west direction during plating. Plated cells were incubated at 37° C./5% CO2 in a humidified cell culture incubator for 4-6 hours. During this time, incubation medium (Gibco™ CM4000, cell maintenance supplement pack; Thermo Fisher Scientific) was mixed with Gibco™ Geltrex™ (Thermo Fischer Scientific) at the appropriate Geltrex™ protein concentration. Following recovery, medium was removed from cells and replaced with freshly prepared incubation medium. Cells were incubated overnight in a cell culture incubator (37° C./5% CO2).
The next day the incubation medium was prepared by combining the hepatocyte maintenance supplement pack with Williams medium E. The medium was warmed to 37° C. 1000× dimethyl sulfoxide compound stocks were prepared to the desired concentrations. 10 mM compound stocks in dimethyl sulfoxide were diluted (1 μL to 1 mL CM4000; final concentration=10 μM). Overlay medium was aspirated and […] dose solution added to the desired labeled 96 well plate. Cells were returned to the humidified incubator overnight (37° C./5% CO2).
On day 3, incubation medium was warmed to 37° C., and the same process for compound preparation repeated as in day 2, i.e. 1000× dimethyl sulfoxide compound stocks were prepared to the desired concentration, diluted (1:1000) in warm incubation medium, and this freshly prepared medium was used to replace treatment medium. Cells were returned to the humidified incubator (37° C./5% CO2) overnight.
On day 4, RNA isolation was performed. Prior to RNA isolation, cell viability was assessed using presto blue reagent. 10× dilution of PrestoBlue™ reagent (Thermo Fisher Scientific) was prepared by mixing 1.4 mL PrestoBlue™ with 12.6 mL incubation medium. Medium was aspirated from cells, and 100 μL of cell viability medium (10× dilution of PrestoBlue™ reagent) added and incubated for 17 minutes. Cell viability was determined by measuring absorbance using a microplate reader (Spark® 10M Tecan Life Sciences). After this measurement, media was aspirated using a multichannel aspirator and a glass pipet to completely aspirate from each well. Plates were stored or immediately used for mRNA isolation. All surfaces were cleaned using RNase away. 2× Lysis buffer was well mixed after incubation at ambient temperature. Fresh lysis buffer was prepared by mixing 0.125 μL of 0.5 mM DTT with 4.875 μL 2× lysis buffer. 1× lysis buffer containing DTT was then prepared by adding 5 μL dilution buffer to the 2× lysis buffer and mixing thoroughly. Thereafter, cell lysates were prepared by adding 1× lysis buffer to each sample well (96-well plate). Samples were incubated for 3-6 minutes at ambient temperature while shaking (350-400 rpm) to lyse the cells. Cells were scrapped with tips, and cell lysate (80 μL) was transferred to each well of the mRNA Catcher PLUS™ plate (Thermo Fisher Scientific). mRNA Catcher PLUS™ plate containing samples was covered with adhesive plastic film plate cover and incubated at ambient temperature for 45-60 minutes for RNA hybridization.
After hybridization, lysate was aspirated from the cells. […]

[1] = target: T2, Phosphorylation of Y223 of BTK (Homo sapiens, UniProt Q06187); test: Whole blood compound screening, phosphorylation of Y223 site of BTK (MSD assay); format: cell-based; conditions: healthy human whole blood, 2 hours at 37° C., 3 separate donors; read-out: WB BTK-pY223 EC50
T2 construct: host or cells: healthy human whole blood, 3 donors
Outline: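 Heparinized human whole blood from 3 donors treated 2 h at 37 °C with compounds (8 points, top 10 μM, 1:4 dilution, 0.2% DMSO), then lysed. BTK pY223 quantified by MSD sandwich immunoassay (anti-BTK capture, anti-pY223 detection); EC50 from concentration response.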

T2 sequence (Q06187 whole entry): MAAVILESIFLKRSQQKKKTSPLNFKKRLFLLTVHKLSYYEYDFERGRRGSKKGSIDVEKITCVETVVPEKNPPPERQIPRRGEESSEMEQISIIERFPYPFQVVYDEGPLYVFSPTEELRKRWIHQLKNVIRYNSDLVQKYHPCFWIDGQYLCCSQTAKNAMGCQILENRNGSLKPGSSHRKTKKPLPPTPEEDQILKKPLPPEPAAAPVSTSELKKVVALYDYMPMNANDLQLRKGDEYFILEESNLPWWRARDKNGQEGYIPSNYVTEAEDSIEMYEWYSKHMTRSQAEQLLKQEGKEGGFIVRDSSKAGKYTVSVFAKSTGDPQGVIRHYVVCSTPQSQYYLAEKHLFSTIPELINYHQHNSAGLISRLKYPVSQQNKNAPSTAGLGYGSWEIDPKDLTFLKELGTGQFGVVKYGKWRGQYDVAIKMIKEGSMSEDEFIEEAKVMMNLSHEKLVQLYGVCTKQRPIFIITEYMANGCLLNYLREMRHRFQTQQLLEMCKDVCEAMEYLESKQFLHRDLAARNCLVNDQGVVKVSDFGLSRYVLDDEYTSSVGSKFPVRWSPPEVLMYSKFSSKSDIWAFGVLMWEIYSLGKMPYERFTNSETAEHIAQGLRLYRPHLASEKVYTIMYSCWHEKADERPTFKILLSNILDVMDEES
T1 sequence (Q06187 whole entry): as above

Row | IC50 (BTK) | CYP3A4 Ind. fold (CYP3A4) | EC50 [1] | Compound
1 | 77.5 nM | 1.58 fold |  | C=CC(=O)N1CCN([C@@H]2CCNc3c2nn(-c2ccc(Oc4cc(F)cc(F)c4)cc2)c3C(N)=O)CC1 [Example 58, (7R)-2-[4-(3,5-difluorophenoxy)phenyl]-7-[4-(prop-2-enoyl)piperazin-1-yl]-4,5,6,7-tetrahydro-2H-pyrazolo[4,3-b]pyridine-3-carboxamide]
2 | 2.17 nM | 0.85 fold | 117 nM | C=CC(=O)N1CCN([C@H]2CCNc3c2nn(-c2ccc(Oc4cc(F)cc(F)c4)cc2)c3C(N)=O)CC1 [Example 59, (7S)-2-[4-(3,5-difluorophenoxy)phenyl]-7-[4-(prop-2-enoyl)piperazin-1-yl]-4,5,6,7-tetrahydro-2H-pyrazolo[4,3-b]pyridine-3-carboxamide]
3 | 0.515 nM |  | 44.1 nM | C=CC(=O)N1CCN([C@@H]2CCNc3c2nn(-c2ccc(Oc4ccccc4)cc2)c3C(N)=O)CC12CC2 [Example 82, (7R)-2-(4-phenoxyphenyl)-7-[4-(prop-2-enoyl)-4,7-diazaspiro[2.5]octan-7-yl]-4,5,6,7-tetrahydro-2H-pyrazolo[4,3-b]pyridine-3-carboxamide]
4 | 66.6 nM |  | 1730 nM | C=CC(=O)N1CCN([C@H]2CCNc3c2nn(-c2ccc(Oc4ccccc4)cc2)c3C(N)=O)CC12CC2 [Example 83, (7S)-2-(4-phenoxyphenyl)-7-[4-(prop-2-enoyl)-4,7-diazaspiro[2.5]octan-7-yl]-4,5,6,7-tetrahydro-2H-pyrazolo[4,3-b]pyridine-3-carboxamide]
5 | 1.4 nM |  | 45.6 nM | C=CC(=O)N1CCC(O)(C2CCNc3c2nn(-c2ccc(Oc4ccccc4)cc2)c3C(N)=O)CC1 (stereo not shown) [Example 84, 7-[4-hydroxy-1-(prop-2-enoyl)piperidin-4-yl]-2-(4-phenoxyphenyl)-4,5,6,7-tetrahydro-2H-pyrazolo[4,3-b]pyridine-3-carboxamide]
6 | 107 nM |  | 2030 nM | C=CC(=O)N1CCN([C@@H]2CCNc3c2nn(-c2ccc(Oc4ccc(OC(F)(F)F)cc4)cc2)c3C(N)=O)CC1 [Example 85, (7R)-7-[4-(prop-2-enoyl)piperazin-1-yl]-2-{4-[4-(trifluoromethoxy)phenoxy]phenyl}-4,5,6,7-tetrahydro-2H-pyrazolo[4,3-b]pyridine-3-carboxamide]
7 | 0.706 nM |  | 315 nM | C=CC(=O)N1CCN([C@@H]2CCNc3c2nn(-c2ccc(Oc4ccccc4C)cc2)c3C(N)=O)CC1 [Example 86, (7R)-2-[4-(2-methylphenoxy)phenyl]-7-[4-(prop-2-enoyl)piperazin-1-yl]-4,5,6,7-tetrahydro-2H-pyrazolo[4,3-b]pyridine-3-carboxamide]
8 | 3.32 nM |  | 162 nM | C=CC(=O)N1CCN([C@@H]2CCNc3c2nn(-c2ccc(Oc4ccc(OC)cc4)cc2)c3C(N)=O)CC1 [Example 87, (7R)-2-[4-(4-methoxyphenoxy)phenyl]-7-[4-(prop-2-enoyl)piperazin-1-yl]-4,5,6,7-tetrahydro-2H-pyrazolo[4,3-b]pyridine-3-carboxamide]
9 | 0.797 nM |  | 225 nM | C=CC(=O)N1CCN([C@@H]2CCNc3c2nn(-c2ccc(Oc4cccc(C)c4)cc2)c3C(N)=O)CC1 [Example 88, (7R)-2-[4-(3-methylphenoxy)phenyl]-7-[4-(prop-2-enoyl)piperazin-1-yl]-4,5,6,7-tetrahydro-2H-pyrazolo[4,3-b]pyridine-3-carboxamide]
10 | 1.75 nM |  | 525 nM | C=CC(=O)N1CCN([C@@H]2CCNc3c2nn(-c2ccc(Oc4cccc(OC(F)(F)F)c4)cc2)c3C(N)=O)CC1 [Example 89, (7R)-7-[4-(prop-2-enoyl)piperazin-1-yl]-2-{4-[3-(trifluoromethoxy)phenoxy]phenyl}-4,5,6,7-tetrahydro-2H-pyrazolo[4,3-b]pyridine-3-carboxamide]
11 | 1.29 nM |  | 933 nM | C=CC(=O)N1CCN([C@@H]2CCNc3c2nn(-c2ccc(Oc4ccccc4OC(F)(F)F)cc2)c3C(N)=O)CC1 [Example 90, (7R)-7-[4-(prop-2-enoyl)piperazin-1-yl]-2-{4-[2-(trifluoromethoxy)phenoxy]phenyl}-4,5,6,7-tetrahydro-2H-pyrazolo[4,3-b]pyridine-3-carboxamide]
12 | 1.66 nM |  | 399 nM | C=CC(=O)N1CCN([C@@H]2CCNc3c2nn(-c2ccc(Oc4cccc(OC)c4)cc2)c3C(N)=O)CC1 [Example 91, (7R)-2-[4-(3-methoxyphenoxy)phenyl]-7-[4-(prop-2-enoyl)piperazin-1-yl]-4,5,6,7-tetrahydro-2H-pyrazolo[4,3-b]pyridine-3-carboxamide]
13 | 2.42 nM |  | 608 nM | C=CC(=O)N1CCN([C@@H]2CCNc3c2nn(-c2ccc(Oc4ccc(C)cc4)cc2)c3C(N)=O)CC1 [Example 92, (7R)-2-[4-(4-methylphenoxy)phenyl]-7-[4-(prop-2-enoyl)piperazin-1-yl]-4,5,6,7-tetrahydro-2H-pyrazolo[4,3-b]pyridine-3-carboxamide]
14 | 5.09 nM |  | 400 nM | C=CC(=O)N1CCN([C@@H]2CCNc3c2nn(-c2ccc(Oc4ccccc4OC)cc2)c3C(N)=O)CC1 [Example 93, (7R)-2-[4-(2-methoxyphenoxy)phenyl]-7-[4-(prop-2-enoyl)piperazin-1-yl]-4,5,6,7-tetrahydro-2H-pyrazolo[4,3-b]pyridine-3-carboxamide]

Row | Compound | IC50 (BTK) | CYP3A4 Ind. fold (CYP3A4) | EC50 [1]
15 | C=CC(=O)N1C2CC1CN(C1CCNc3c1nn(-c1ccc(Oc4ccccc4)cc1)c3C(N)=O)C2 (stereo not shown) [Example 45, 2-(4-phenoxyphenyl)-7-[6-(prop-2-enoyl)-3,6-diazabicyclo[3.1.1]heptan-3-yl]-4,5,6,7-tetrahydro-2H-pyrazolo[4,3-b]pyridine-3-carboxamide] | 2.33 nM | 25.40 fold | 

Reference: patent US20220213092A1, “BICYCLIC PYRAZOLE BRUTON'S TYROSINE KINASE INHIBITORS” (AbbVie Inc., priority 2020, published 2022)
